Test results: patent publication US20260053778A1, “USE OF NOVEL PPAR ACTIVITY MODULATOR FOR PREVENTION, AMELIORATION OR TREATMENT OF DEGENERATIVE BRAIN DISEASES” (POSTECH RESEARCH AND BUSINESS DEVELOPMENT FOUNDATION, priority 2022, published 2026)

Key:
[1] = test system: 5×FAD mice; assay: Western blot of NLRP3, NF-κB and ASC in hippocampal tissue; type: in vivo, mouse; conditions: hippocampal brain lysate
Procedure: The protein levels of NLRP3, NF-κB, and ASC in the hippocampal tissues isolated from 5×FAD mice and DTMB-treated 5×FAD mice were confirmed by Western blot. Western blot analysis was performed in the same manner as in Example 2-4 using primary antibodies against NLRP3, NF-κB, and ASC (Cell Signaling Technology, Danvers, MA, USA).

[2] = molecular target: T1, PPARγ (Homo sapiens, UniProt P37231); assay: GAL4-transactivation assay in HEK293A cells, PPARγ; type: cell-based; conditions: GAL4 reporter, 24 h, compared with rosiglitazone
T1 construct: expressed in transfected cells; host or cells: HEK293A
T1 sequence (P37231 1-505): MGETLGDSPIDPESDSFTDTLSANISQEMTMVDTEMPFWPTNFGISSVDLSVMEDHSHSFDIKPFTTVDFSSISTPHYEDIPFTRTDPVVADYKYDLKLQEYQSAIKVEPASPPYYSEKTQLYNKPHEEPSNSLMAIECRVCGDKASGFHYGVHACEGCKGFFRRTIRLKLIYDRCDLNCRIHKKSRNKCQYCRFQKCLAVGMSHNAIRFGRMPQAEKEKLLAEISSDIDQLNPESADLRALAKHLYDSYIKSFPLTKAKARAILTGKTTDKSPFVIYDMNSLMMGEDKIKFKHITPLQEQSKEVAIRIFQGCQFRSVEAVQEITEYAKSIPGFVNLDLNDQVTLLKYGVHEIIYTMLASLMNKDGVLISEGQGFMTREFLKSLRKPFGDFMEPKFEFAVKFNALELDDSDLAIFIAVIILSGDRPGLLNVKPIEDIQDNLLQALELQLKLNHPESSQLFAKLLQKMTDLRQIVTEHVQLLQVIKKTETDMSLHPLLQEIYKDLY
Procedure: A GAL4-transactivation assay experiment was performed to determine whether the drug was bound to the PPAR ligand binding site. HEK293A cells were transfected with GAL4-reporter plasmid and pGL4.74 (Promega, Madison, WI, USA) as an internal standard via electroporation using the Neon Transfection System (Invitrogen, Carlsbad, CA, USA). All vectors were kindly provided by Professor Kanno Yuichiro, Toho University, Japan. After overnight culture, cells were treated with DTMB and each positive control compound for 24 h. Cells were then harvested, resuspended in luciferase lysis buffer (Promega), and incubated on ice for 10 min. Cell debris was removed by centrifugation at 20,000×g, 4° C. for 10 min, and the supernatant was used for the luciferase assay. Luciferase activity was measured using the Dual Luciferase Reporter Assay System (Promega) according to the manufacturer's instructions. In the measurement experiment, firefly luciferase activity was normalized to Renilla luciferase activity. To investigate the concentration-dependent effect of DTMB drug, EC50 values were measured by treating various concentrations of DTMB.

[3] = Body weight and organ weight after 12 weeks of treatment; type: in vivo, mouse; conditions: DTMB 10 mg/kg orally, 12 weeks (3 months), versus vehicle-treated mice
Procedure: 5×FAD (Tg6799) mice were purchased from Jackson Laboratory (Bar Harbor, ME, USA), and male transgenic mice were mated with B6/SJL hybrid female mice. Genotyping was performed by PCR analysis of tail-cut samples. In this example, 8-week-old female mice were used for drug administration, and wild-type littermates were used as controls. All procedures related to animal behavior experiments were approved by the Institutional Animal Care and Use Committee of Pohang University of Science and Technology (POSTECH IACUC). All animal experiments were performed in accordance with the principles of the Animal Welfare Act, the PHS Animal Welfare Policy, and the NIH Guide for the Care and Use of Laboratory Animals. All mice were maintained under general conditions in the POSTECH animal facility according to institutional guidelines.
To evaluate the effect of DTMB on 5×FAD mice, DTMB (10 mg/kg) and vehicle (1% carboxymethylcellulose and 10% DMSO) were orally administered to four groups (wild type, wild type+DTMB, 5×FAD, and 5×FAD+DTMB) 6 days per week for 3 months.

[4] = test system: 5×FAD Alzheimer's dementia-induced mice; assay: Immunohistochemistry of gliosis (IBA-1, GFAP) in brain tissue; type: in vivo, mouse; conditions: cerebral cortex and hippocampus, IBA-1 and GFAP staining, 5×FAD mice, DTMB 10 mg/kg orally
Procedure: The degree of gliosis was confirmed through immunochemical analysis using antibodies against IBA-1, a specific protein of microglia, and GFAP, a specific protein of astrocytes. Specifically, immunohistochemistry was performed in the same manner as in Example 6-1 using anti-Iba1 antibody (Wako, Japan, 1:200) and anti-GFAP antibody (Abcam, Cambridge, UK, 1:200) as primary antibodies.

[5] = test system: RAW 264.7 cell line; assay: Cell viability assay (MTT), RAW 264.7; type: cell-based; conditions: RAW 264.7, 48 h, at higher concentrations
Procedure: Cell viability was measured by a chromogenic assay that biologically reduces 3-(4,5-dimethyl-thiazol-2-yl)-2,5-diphenyltetrazolium bromide (MTT) to formazan in living cells. Briefly, cells were cultured in 96-well plates in a final volume of 100 μL. After 24 h, the culture medium was replaced with fresh medium containing DTMB compound, and the cells were cultured for another 48 h. Next, MTT (dissolved in PBS at 5 mg/mL) was added to the culture medium. The cells were cultured in the dark at 37° C. for 1 h, and then the supernatant was removed from the wells. The formazan crystals were dissolved by adding total MTT solvent (4 mM HCl and 0.1% Nonidet P-40, both dissolved in isopropanol), and the absorbance was measured at 570 nm using a microplate reader, Infinite 200 Pro NanoQuant microplate reader (TECAN, Switzerland).

[6] = test system: microglial cells isolated from mice; assay: Western blotting of NF-κB, NLRP-3 and ASC in primary microglia; type: cell-based, mouse; conditions: primary microglia treated with Aβ aggregates or LPS, Western blot
Procedure: To confirm the mechanism by which DTMB exerts its anti-inflammatory effect, microglial cells isolated from mice were treated with Aβ aggregates or LPS to induce an inflammatory response, and then DTMB was treated to determine the levels of NF-κB, NLRP-3, and ASC proteins by western blotting.
The cells were lysed with lysis buffer containing 50 mM Tris (pH 7.4), 140 mM NaCl, 5 mM EDTA, and protease inhibitor tablets, and then sonicated. The protein concentration of the lysate was determined using Bradford reagent (AMERSCO, MA, USA). Proteins were separated by sodium dodecyl sulfate (SDS) polyacrylamide gel electrophoresis, transferred to nitrocellulose membranes (Pall Corporation, New York, NY, USA), and incubated with blocking buffer (5% nonfat dry milk and 0.1% Tween 20 in TBS) for 30 min. Western blot analysis was performed using primary antibodies against NF-κB, NLRP3, and ASC (Cell Signaling Technology, Danvers, MA, USA). Secondary antibodies from rabbit (Promega), rat, and goat (Bethyl Laboratories) were used, and detection was performed using SUPEX ECL reagent (Neuronex, Korea) and ImageQuant LAS-4000 (GE Healthcare, MA, USA) according to the manufacturer's instructions. Integrated blot densities were quantified using ImageJ.

SMILES: COc1ccc(-c2cc(=O)oc3c(C)c(OC(=O)[C@H](Cc4c[nH]c5ccccc45)NC(=O)OC(C)(C)C)ccc23)cc1 [DTMB, [4-(4-Methoxyphenyl)-8-methyl-2-oxochromen-7-yl](2S)-3-(1H-indol-3-yl)-2-[(2-methylpropan-2-yl)oxycarbonylamino]propanoate]
- ASC level [1]: did not change significantly
- Protein level of NF-κB [1]: decreased
- Protein level of NLRP3 [1]: decreased
- PPARγ activation versus positive control [2]: activated at a slightly higher concentration than GW501516 and rosiglitazone, respectively
- Body weight [3]: no change
- Tissue weight [3]: no change
- Hyperactivity of microglia and astrocytes (gliosis) [4]: significantly reduced
- Cytotoxicity (MTT) [5]: no cytotoxicity
- NF-κB protein level [6]: reducing NF-κB
- NLRP3 protein level [6]: reduced
